The record followed here is publication PMC4704049, “Potential Dual Role of Eugenol in Inhibiting Advanced Glycation End Products in Diabetes: Proteomic and Mechanistic Insights” (Scientific Reports, 2016).

The experiment addresses T1, bovine serum albumin (BSA) (Bos taurus, UniProt P02769).
T1 construct: gene ALB
In words: intrinsic fluorescence quenching (eugenol […]). Type of experiment: binding.

T1 sequence (P02769 25-607): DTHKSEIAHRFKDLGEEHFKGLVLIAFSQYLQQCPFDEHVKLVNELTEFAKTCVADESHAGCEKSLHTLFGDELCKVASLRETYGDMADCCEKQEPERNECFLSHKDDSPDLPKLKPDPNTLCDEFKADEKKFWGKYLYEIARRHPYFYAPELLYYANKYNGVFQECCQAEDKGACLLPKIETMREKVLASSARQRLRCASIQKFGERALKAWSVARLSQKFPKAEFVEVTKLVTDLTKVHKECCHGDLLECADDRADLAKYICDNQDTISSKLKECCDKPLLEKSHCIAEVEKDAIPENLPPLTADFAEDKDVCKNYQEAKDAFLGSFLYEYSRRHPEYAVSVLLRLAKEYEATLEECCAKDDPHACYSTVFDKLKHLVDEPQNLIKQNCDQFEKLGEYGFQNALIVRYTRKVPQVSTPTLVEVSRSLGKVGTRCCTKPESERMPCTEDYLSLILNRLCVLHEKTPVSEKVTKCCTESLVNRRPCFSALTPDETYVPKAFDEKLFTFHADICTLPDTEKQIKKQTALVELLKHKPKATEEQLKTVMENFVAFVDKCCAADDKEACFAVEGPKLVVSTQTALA

Take `C=CCc1ccc(O)c(OC)c1` [EUG, eugenol]: the “intrinsic fluorescence quenching (eugenol 1-50 mM)” value is “In the intrinsic fluorescence assay, it was evident that eugenol binds to BSA in a concentration dependent manner”.
